Assay results published in patent US20180055887A1, “METHOD FOR PREPARING INDUCED MESENCHYMAL STEM CELLS AND IMPROVING MESENCHYMAL STEM CELL'S CHARACTERS AND ITS APPLICATIONS” (ACADEMIA SINICA, priority 2016, published 2018).
Marks after values point to notes of the source that are not given here.

Columns and labels:
[1] = system: Human primary neonatal foreskin fibroblasts (CRL2097); assay: Generation of iMSCs from fibroblasts by chemical treatment, flow cytometry for SSEA-4 and PODXL; type: cell-based; conditions: for Percentage of cells with both SSEA-4 and PODXL: CRL2097 fibroblasts, DMEM only 0.1%; for iMSC generation from fibroblasts (in words): SSEA-4+PODXL+ population by flow cytometry, without growth factors
Experimental: For iMSC dedifferentiation from human fibroblasts, primary fibroblasts were cultured in DMEM-HG for 2 days. The culture medium was then replaced with medium containing different chemical(s), with or without growth factor(s), for 3 to 21 days (FIG. 1A). Cells were cultured at 37° C. under 5% CO2.
Cells were then analyzed by FACSCanto (Becton Dickinson, Franklin Lakes, N.J., USA). SSEA-4 and PODXL double positive cells were isolated using a cell sorter (FACS Aria II, BD Biosciences).
After culture, the cells treated by the chemical cocktail were examined by flow cytometry.
Human primary neonatal foreskin fibroblasts (CRL2097) were cultured in DMEM medium only (as a negative control) or in DMEM medium containing a GSK3β inhibitor (CHIR99021, 3 μM) or a protein kinase C inhibitor (Go6983, 5 μM), and the percentage of the cells converted to iMSCs, co-expressing SSEA-4 and PODXL, were determined by flow cytometer.
Additional combinations of chemicals were analyzed for their activities to generate iMSCs from fibroblasts and the percentage of the cells converted to iMSCs, co-expressing SSEA-4 and PODXL, were determined by flow cytometer.

BMMSCs = assay: Improvement of multipotency of MSCs: percentage of MSC markers SSEA-4 and PODXL by flow cytometer; type: cell-based, human; conditions: treatment of BMMSCs
Experimental: For cell surface marker analysis, BMMSCs, iMSCs, and fibroblasts were incubated with FITC-conjugated anti-human SSEA-4 (clone MC-813-70; eBiosciences, San Diego, Calif., USA) and PE-conjugated anti-human PODXL (clone B34D1.3; eBiosciences) antibodies. Cells were then analyzed by FACSCanto (Becton Dickinson, Franklin Lakes, N.J., USA). SSEA-4 and PODXL double positive cells were isolated using a cell sorter (FACS Aria II, BD Biosciences).
BBMSCs were cultured in conversion medium for 6 days, without chemical treatment (control) or with treatment of chemical cocktails (6C+3GF), including six chemical kinase(6C) inhibitors i.e. a p38 inhibitor (5B202190), a JNK inhibitor (SP600125), a protein kinase C inhibitor (Go6983), a ROCK inhibitor (Y-27632), a ERK1/2 inhibitor (PD0325901) and a GSK3β inhibitor (CHIR99021) and three growth factors i.e. a leukemia inhibitory factor (LIF), a basic fibroblast growth factor (bFGF) and a transforming growth factor-β (TGF-β). In other conditions, MSCs were cultured with chemicals cocktails (six, seven or eight chemicals) without the growth factors. The percentages of the MSC markers, SSEA-4 and PODXL, were determined by flow cytometer. Six chemicals (6C) includes a p38 inhibitor (SB202190), a JNK inhibitor (SP600125), a protein kinase C inhibitor (Go6983), a ROCK inhibitor (Y-27632), a ERK1/2 inhibitor (PD0325901) and a GSK3β inhibitor (CHIR99021). […]

[2] = Table 2: other factors or a combination, tested in the same manner

| Structure (SMILES) | Percentage of cells with both SSEA-4 and PODXL [1, 2] | further results |
| --- | --- | --- |
| O=C(NOC[C@@H](O)CO)c1ccc(F)c(F)c1Nc1ccc(I)cc1F [PD0325901, N-[(2S)-2,3-Dihydroxypropoxy]-3,4-difluoro-2-[(2-fluoro-4-iodophenyl)amino]benzamide] | 0.40% |  |
| O=c1cc(N2CCOCC2)oc2c(-c3ccccc3)cccc12 [LY294002] | 0.80% |  |
| Oc1ccc(-c2nc(-c3ccncc3)c(-c3ccc(F)cc3)[nH]2)cc1 [SB202190] | 0.10% |  |
| CC(C)N(CCCNC(=O)Nc1ccc(C(C)(C)C)cc1)C[C@H]1O[C@@H](n2cc(Br)c3c(N)ncnc32)[C@H](O)[C@@H]1O [SGC0946, 5-Bromo-7-(5-deoxy-5-{isopropyl[3-({[4-(2-methyl-2-propanyl)phenyl]carbamoyl}amino)propyl]amino}-β-D-ribofuranosyl)-7H-pyrrolo[2,3-d]pyrimidin-4-amine] | 0.20% |  |
| C[C@@H](N)[C@H]1CC[C@H](C(=O)Nc2ccncc2)CC1 [Y27632] | 0.50% |  |
| C[S+]([O-])c1ccc(-c2nc(-c3ccc(F)cc3)c(-c3ccncc3)[nH]2)cc1 (stereo not shown) [SB203580] | 0.10% |  |
| COc1cc2nc(N3CCCN(C)CC3)nc(NC3CCN(Cc4ccccc4)CC3)c2cc1OC [BIX01294] | 0.30% |  |
| O=C1O[C@H]([C@@H](O)CO)C(O)=C1O [VitC, ascorbic acid] | 0.60% |  |
| CO[C@H]1C[C@@H]2CC[C@@H](C)[C@@](O)(O2)C(=O)C(=O)N2CCCC[C@H]2C(=O)O[C@H]([C@H](C)C[C@@H]2CC[C@@H](O)[C@H](OC)C2)CC(=O)[C@H](C)/C=C(\C)[C@@H](O)[C@@H](OC)C(=O)[C@H](C)C[C@H](C)/C=C/C=C/C=C/1C [Rapamycin, (1R,9S,12S,15R,16E,18R,19R,21R,23S,24E,26E,28E,30S,32S,35R)-1,18-Dihydroxy-12-{(2R)-1-[(1S,3R,4R)-4-hydroxy-3-methoxycyclohexyl]-2-propanyl}-19,30-dimethoxy-15,17,21,23,29,35-hexamethyl-11,36-dioxa-4-azatricyclo[30.3.1.0~4,9~]hexatriaconta-16,24,26,28-tetraene-2,3,10,14,20-pentone] | 0.20% |  |
| CCCC(=O)[O-].[Na+] [Sodium butyrate] | 0.70% |  |
| CC(=O)N[C@@H](CS)C(=O)O [NAC, N-Acetylcysteine] | 0.50% |  |
| O=S(=O)(c1cccc2cnccc12)N1CCCNCC1 [Fasudil] | 0.20% |  |
| N[C@@H](CCC(=O)N[C@@H](CS)C(=O)NCC(=O)O)C(=O)O [GSH, Glutathione] | 0.40% |  |
| COc1ccc(C2CNC(=O)C2)cc1OC1CCCC1 (stereo not shown) [Rolipram] | 0.30% |  |
| O=C(NCc1ccccc1)c1csc(Nc2ccncn2)n1 [Thiazovivin] | 0.80% | Percentage of cells with both SSEA-4 and PODXL ([1]; Table 2: other factors or a combination, tested in the same manner, listed as thiazovivin): 0.8% |
| Cc1cnc(-c2cnc(NCCNc3ccc(C#N)cn3)nc2-c2ccc(Cl)cc2Cl)[nH]1 [CHIR99021, 6-[(2-{[4-(2,4-Dichlorophenyl)-5-(5-methyl-1H-imidazol-2-yl)-2-pyrimidinyl]amino}ethyl)amino]nicotinonitrile] |  | iMSC generation from fibroblasts (in words) [1]: effective in iMSC generation; Percentage of cells with both SSEA-4 and PODXL ([1]; Table 1: single factor in DMEM medium, CHIR99021 3 μM, Go6983 5 μM): 0.9%; Percentage of cells with both SSEA-4 and PODXL ([1]; Table 1: single factor in DMEM medium, CHIR99021 3 μM, Go6983 5 μM, listed as CHIR99201): 0.90%* |
| O=C1c2ccccc2-c2n[nH]c3cccc1c23 [SP600125] | 0.20% |  |
| COc1ccc2c(c1)c(C1=C(c3c[nH]c4ccccc34)C(=O)NC1=O)cn2CCCN(C)C [Go6983, 3-{1-[3-(Dimethylamino)propyl]-5-methoxy-1H-indol-3-yl}-4-(1H-indol-3-yl)-1H-pyrrole-2,5-dione] |  | iMSC generation from fibroblasts (in words) [1]: effective in iMSC generation; expression of functional markers of BMSCs (in words) (BMMSCs): can effectively increase the expression of functional markers |
| NC(=O)c1ccc(-c2nc(-c3ccc4c(c3)OCO4)c(-c3ccccn3)[nH]2)cc1 [SB431542] | 0.40% |  |
| c1cc(-c2cnn3cc(-c4ccc(OCCN5CCCCC5)cc4)cnc23)ccn1 [Dorsomorphin, 6-[4-(2-Piperidin-1-yl-ethoxy)-phenyl]-3-pyridin-4-yl-pyrrazolo[1,5,-α]pyrimidine] | 0.10% | Percentage of cells with both SSEA-4 and PODXL ([1]; Table 2: other factors or a combination, tested in the same manner, listed as dorsomorphin): 0.1% |
| Cc1cccc(-c2n[nH]cc2-c2ccc3ncccc3n2)n1 [Repsox, 2-[3-(6-Methyl-2-pyridinyl)-1H-pyrazol-4-yl]-1,5-naphthyridine] | 0.40% |  |
| Cc1nc(Nc2ncc(C(=O)Nc3c(C)cccc3Cl)s2)cc(N2CCN(CCO)CC2)n1 [Dasatinib] | 0.40% |  |
| CCCC(CCC)C(=O)O [VPA, 2-Propylpentanoic acid] | 0.2% |  |
